Assay: Binding affinity against sigma receptor in guinea pig brain preparation was estimated using [3H]3-PPP as radioligand

Work on `C1=C(c2ccccn2)CCN(CCCCc2ccncc2)C1` [1'-(4-Pyridin-4-yl-butyl)-1',2',3',6'-tetrahydro-[2,4']bipyridinyl] yielded a Ki of 44.5 nM.
Compound `C1=C(c2c[nH]c3ccccc23)CCN(CCCCc2ccncc2)C1` [3-[1-(4-Pyridin-4-yl-butyl)-1,2,3,6-tetrahydro-pyridin-4-yl]-1H-indole] has a Ki of 10.3 nM.
`C1=C(c2ccc3ccccc3c2)CCN(CCCCc2ccncc2)C1` [4-[4-(4-Naphthalen-2-yl-3,6-dihydro-2H-pyridin-1-yl)-butyl]-pyridine] gave a Ki of 3.07 nM.
`C1=C(c2ccccc2)CCN(CCCCc2ccncc2)C1` [4-[4-(4-Phenyl-3,6-dihydro-2H-pyridin-1-yl)-butyl]-pyridine] gave a Ki of 2.72 nM.
With `C1=C(c2cccs2)CCN(CCCCc2ccncc2)C1` [4-[4-(4-Thiophen-2-yl-3,6-dihydro-2H-pyridin-1-yl)-butyl]-pyridine] the Ki was 2.13 nM.
`Cc1ccc(C2=CCN(CCCCc3ccncc3)CC2)cc1` [4-[4-(4-p-Tolyl-3,6-dihydro-2H-pyridin-1-yl)-butyl]-pyridine] gave a Ki of 5.86 nM.
For `Clc1ccc(C2=CCN(CCCCc3ccncc3)CC2)cc1` [4-{4-[4-(4-Chloro-phenyl)-3,6-dihydro-2H-pyridin-1-yl]-butyl}-pyridine], the Ki was 1.04 nM.
With `Fc1ccc(C2=CCN(CCCCc3ccncc3)CC2)cc1` [4-{4-[4-(4-Fluoro-phenyl)-3,6-dihydro-2H-pyridin-1-yl]-butyl}-pyridine] the Ki was 1.75 nM.
`COc1ccc(C2=CCN(CCCCc3ccncc3)CC2)cc1` [4-{4-[4-(4-Methoxy-phenyl)-3,6-dihydro-2H-pyridin-1-yl]-butyl}-pyridine] showed a Ki of 0.45 nM.

Reference: BindingDB's records for doi:10.1016/S0960-894X(01)80892-1 (1993)
